Laboratory results: US8568762B2, “Methods for modifying the surface of an implant to provide said surface with calcium” (Biotechnology Institute, I Mas D, S.L., priority 2010, dated 2013)

How the values were obtained:
blood plasma [1] = assay: Test 4b: coagulation in the presence of surfaces with or without calcium (titanium tubes, absorbance 450 nm); format: biochemical, human; settings: surfaces with no calcium; 50 mM NaOH or 0.9 wt. % NaCl treatment, not dried
Experimental: Blood plasma was prepared by extracting blood from three healthy patients. A technique similar to the one described in patent EP1066838B1 was applied to obtain a Plasma Rich in Growth Factors (PRGF): the blood was centrifuged for eight minutes at 460 G; the column of plasma was then separated from the red globules and white globules by manual pipetting (unlike the protocol described in EP1066838B1, in this case, due to the criteria of volume for carrying out the experiments, the entire plasma column was selected, not merely the part richer in platelets). Both the red globules and the white globules were discarded. First of all, the surfaces were prepared. For the study of the coagulation, in which the excess surface calcium was to be measured, hollow tubes were used to enable the reader beam to move longitudinally. […] They were ultrasound-washed with Triton X-100, acetone and ethanol, for 20 minutes. Eight tubes were used per concentration. The solutions were prepared. […] Immediately after the tubes were filled, absorbance (optical density) was measured with a spectrophotometer at a wavelength of 450 nm. […] This gradual cross-linking gradually blocks the passage of the reader beam, the absorbance therefore increasing. […] It is at this point that the absorbance (optical density) values are collated so that comparisons can be made between the various samples.

[2] = ambient temperature; cited from earlier work
blood plasma [3] = assay: Test 4a: coagulation as a function of the volume concentration of calcium (absorbance 450 nm); format: biochemical, human; settings: without surfaces; calcium in plasma between 2.5 and 45.6 mM
Experimental: Blood plasma was prepared by extracting blood from three healthy patients. A technique similar to the one described in patent EP1066838B1 was applied to obtain a Plasma Rich in Growth Factors (PRGF): the blood was centrifuged for eight minutes at 460 G; the column of plasma was then separated from the red globules and white globules by manual pipetting (unlike the protocol described in EP1066838B1, in this case, due to the criteria of volume for carrying out the experiments, the entire plasma column was selected, not merely the part richer in platelets). Both the red globules and the white globules were discarded.
For the purpose of determining the ranges of concentration of calcium ions in plasma at which coagulation is initiated, 10 μl of CaCl2.EtOH were placed in concentrations of between 28 and 2000 mM in the bottom of a multi-well plate comprising 96 wells. […] Absorbance was measured immediately in the manner described hereafter.
Immediately after the tubes were filled, absorbance (optical density) was measured with a spectrophotometer at a wavelength of 450 nm. […]
This gradual cross-linking gradually blocks the passage of the reader beam, the absorbance therefore increasing. […] It is at this point that the absorbance (optical density) values are collated so that comparisons can be made between the various samples.

Row | SMILES | degree of coagulation inside titanium tubes normalized to positive control (blood plasma [1]) | solubility in water [2] | final degree of coagulation in volume, normalized with respect to the positive control (blood plasma [3])
1 | [Na+].[OH-] [NaOH, sodium hydroxide] | lack of coagulation is evident | – | –
2 | [Cl-].[Na+] [NaCl, sodium chloride] | lack of coagulation is evident | – | –
3 | [Ca+2].[Cl-].[Cl-] [CaCl2, calcium chloride] | – | > 60 g/100 mL | sometimes even greater than that of the positive control
